pEC50: −log10 of the molar value.
What follows are compounds tested against T1, human IL-17AA (Homo sapiens, UniProt Q16552) (assay: IL-8 release assay in human epithelial keratinocytes adult (HEKa)). Conditions: HEKa cells, 3 ng/mL HEK-human IL-17AA + 10 ng/mL human TNFalpha; read-out: Rel EC50 IL-8 release assay.
T1 construct: host or cells: HEK (human embryonic kidney) cells
T1 sequence (Q16552 24-155): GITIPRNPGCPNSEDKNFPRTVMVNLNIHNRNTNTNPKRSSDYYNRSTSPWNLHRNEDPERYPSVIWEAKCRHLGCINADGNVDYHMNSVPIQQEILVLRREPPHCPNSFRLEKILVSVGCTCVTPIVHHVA
Type: cell-based
Outline: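 Adult human epidermal keratinocytes stimulated 68-72 h at 37 °C with 3 ng/mL HEK-derived human IL-17AA plus 10 ng/mL TNF-alpha (final) in the presence of compound; TNF-alpha alone defines 100% inhibition. Secreted IL-8 measured by HTRF as percent of controls; relative IC50/Emax from four-parameter fit (r^2>0.9), cytotoxicity by PrestoBlue.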
With `Cn1cncc1-c1ccc(NC(=O)[C@@H](NC(=O)c2ccnn2C)[C@@H]2CCCc3ccc(Br)cc32)cc1` [Example 344, N-[(1S)-1-[(1R)-7-bromotetralin-1-yl]-2-[4-(3-methylimidazol-4-yl)anilino]-2-oxo-ethyl]-2-methyl-pyrazole-3-carboxamide] the pEC50 was < 6.00.
Work on `Cn1cncc1-c1ccc(NC(=O)[C@H](Cc2cc(Br)ccc2Cl)NC(=O)c2ccnn2C)cc1` [Example 345, N-[(1S)-1-[(5-bromo-2-chloro-phenyl)methyl]-2-[4-(3-methylimidazol-4-yl)anilino]-2-oxo-ethyl]-2-methyl-pyrazole-3-carboxamide] yielded a pEC50 of 6.00 to 7.00.
`Cn1cncc1-c1ccc(NC(=O)[C@@H](NC(=O)c2ccnn2C)C(c2ccccc2)c2ccccc2)cc1` [Example 346, N-[(1S)-1-benzhydryl-2-[4-(3-methylimidazol-4-yl)anilino]-2-oxo-ethyl]-2-methyl-pyrazole-3-carboxamide] showed a pEC50 of 6.00 to 7.00.
Compound `Cn1cncc1-c1ccc(NC(=O)[C@@H](NC(=O)C2(F)CC2)C(c2ccccc2)c2ccccc2)cc1` [Example 347, N-[(1S)-1-benzhydryl-2-[4-(3-methylimidazol-4-yl)anilino]-2-oxo-ethyl]-1-fluoro-cyclopropanecarboxamide] has a pEC50 of 6.00 to 7.00.
`Cn1cnnc1-c1ccc(NC(=O)[C@@H](NC(=O)c2cnnn2-c2ccccc2)C2CCCCC2)cc1` [Example 348, N-[(1S)-1-cyclohexyl-2-[4-(4-methyl-1,2,4-triazol-3-yl)anilino]-2-oxo-ethyl]-3-phenyl-triazole-4-carboxamide] was tested, and the pEC50 was < 6.00.
Work on `CC(C)n1nccc1C(=O)N[C@H](C(=O)Nc1ccc(-c2nncn2C)cc1)C1CCCCCC1` [Example 349, N-[(1S)-1-cycloheptyl-2-[4-(4-methyl-1,2,4-triazol-3-yl)anilino]-2-oxo-ethyl]-2-isopropyl-pyrazole-3-carboxamide] yielded a pEC50 of 6.00 to 7.00.
`Cn1cnnc1-c1ccc(NC(=O)[C@@H](NC(=O)c2ccnn2C)C2CCCCCC2)cc1` [Example 350, N-[(1S)-1-cycloheptyl-2-[4-(4-methyl-1,2,4-triazol-3-yl)anilino]-2-oxo-ethyl]-2-methyl-pyrazole-3-carboxamide] was tested, and the pEC50 was < 6.00.
`CC(C)n1nccc1C(=O)N[C@H](C(=O)Nc1ccc(-c2nncn2C)cc1)C1CCCCC1` [Example 351, N-[(1S)-1-cyclohexyl-2-[4-(4-methyl-1,2,4-triazol-3-yl)anilino]-2-oxo-ethyl]-2-isopropyl-pyrazole-3-carboxamide] gave a pEC50 of 6.00 to 7.00.
`Cn1cnnc1-c1ccc(NC(=O)[C@@H](NC(=O)c2ccnn2C)C2CCCCC2)cc1` [Example 352, N-[(1S)-1-cyclohexyl-2-[4-(4-methyl-1,2,4-triazol-3-yl)anilino]-2-oxo-ethyl]-2-methyl-pyrazole-3-carboxamide] was tested, and the pEC50 was < 6.00.
With `Cn1cnnc1-c1ccc(NC(=O)[C@@H](NC(=O)C2(F)CC2)C(c2ccccc2)c2ccccc2)cc1` [Example 353, N-[(1S)-1-benzhydryl-2-[4-(4-methyl-1,2,4-triazol-3-yl)anilino]-2-oxo-ethyl]-1-fluoro-cyclopropanecarboxamide] the pEC50 was < 6.00.
In the case of `Cn1cnnc1-c1ccc(NC(=O)[C@@H](NC(=O)c2ccnn2C)C(c2ccccc2)c2ccccc2)cc1` [Example 354, N-[(1S)-1-benzhydryl-2-[4-(4-methyl-1,2,4-triazol-3-yl)anilino]-2-oxo-ethyl]-2-methyl-pyrazole-3-carboxamide], the pEC50 was < 6.00.
With `COc1n[nH]c(C)c1-c1ccc(NC(=O)[C@@H](NC(=O)c2ccnn2C)C2CCCCC2)cc1` [Example 358, N-[(1S)-1-cyclohexyl-2-[4-(5-methoxy-3-methyl-1H-pyrazol-4-yl)anilino]-2-oxo-ethyl]-2-methyl-pyrazole-3-carboxamide] the pEC50 was < 6.00.
Compound `CCOc1n[nH]c(C)c1-c1ccc(NC(=O)[C@@H](NC(=O)c2ccnn2C)C2CCCCC2)cc1` [Example 359, N-[(1S)-1-cyclohexyl-2-[4-(5-ethoxy-3-methyl-1H-pyrazol-4-yl)anilino]-2-oxo-ethyl]-2-methyl-pyrazole-3-carboxamide] has a pEC50 of 6.00 to 7.00.
`Cc1noc(C)c1-c1ccc(NC(=O)[C@@H](NC(=O)c2ccnn2C(C)C)C(C2CC2)C2CC2)cc1` [Example 360, N-[(1S)-1-(dicyclopropylmethyl)-2-[4-(3,5-dimethylisoxazol-4-yl)anilino]-2-oxo-ethyl]-2-isopropyl-pyrazole-3-carboxamide] was tested, and the pEC50 was > 7.00.
For `Cc1ncoc1-c1ccc(NC(=O)[C@@H](NC(=O)c2ccnn2C(C)C)C(C2CC2)C2CC2)cc1` [Example 361, N-[(1S)-1-(dicyclopropylmethyl)-2-[4-(4-methyloxazol-5-yl)anilino]-2-oxo-ethyl]-2-isopropyl-pyrazole-3-carboxamide], the pEC50 was 6.00 to 7.00.
Compound `CCn1nccc1C(=O)N[C@H](C(=O)Nc1ccc(-c2c(C)ncn2C)c(O)c1)C(C1CC1)C1CC1` [Example 362, N-[(1S)-1-(dicyclopropylmethyl)-2-[4-(3,5-dimethylimidazol-4-yl)-3-hydroxy-anilino]-2-oxo-ethyl]-2-ethyl-pyrazole-3-carboxamide] has a pEC50 of 6.00 to 7.00.
For `Cc1ncn(C)c1-c1ccc(NC(=O)[C@@H](NC(=O)c2ccnn2C(C)C)C(C2CC2)C2CC2)cc1O` [Example 363, N-[(1S)-1-(dicyclopropylmethyl)-2-[4-(3,5-dimethylimidazol-4-yl)-3-hydroxy-anilino]-2-oxo-ethyl]-2-isopropyl-pyrazole-3-carboxamide], the pEC50 was > 7.00.
`CCn1nccc1C(=O)N[C@H](C(=O)Nc1ccc(-c2c(C)cnn2C)c(O)c1)C(C1CC1)C1CC1` [Example 364, N-[(1S)-1-(dicyclopropylmethyl)-2-[4-(2,4-dimethylpyrazol-3-yl)-3-hydroxy-anilino]-2-oxo-ethyl]-2-ethyl-pyrazole-3-carboxamide] was tested, and the pEC50 was > 7.00.
`Cc1cnn(C)c1-c1ccc(NC(=O)[C@@H](NC(=O)c2ccnn2C(C)C)C(C2CC2)C2CC2)cc1O` [Example 365, N-[(1S)-1-(dicyclopropylmethyl)-2-[4-(2,4-dimethylpyrazol-3-yl)-3-hydroxy-anilino]-2-oxo-ethyl]-2-isopropyl-pyrazole-3-carboxamide] was tested, and the pEC50 was > 7.00.
For `Cc1cnn(C)c1-c1ccc(NC(=O)[C@@H](NC(=O)c2ccnn2C(C)CO)C(C2CC2)C2CC2)cc1O` (stereo partly drawn) [Example 366, N-[(1S)-1-(dicyclopropylmethyl)-2-[4-(2,4-dimethylpyrazol-3-yl)-3-hydroxy-anilino]-2-oxo-ethyl]-2-(2-hydroxy-1-methyl-ethyl)pyrazole-3-carboxamide], the pEC50 was 6.00 to 7.00.
In the case of `Cc1cnn(C)c1-c1ccc(NC(=O)[C@@H](NC(=O)c2ccnn2C(C)C)C(C2CC2)C2CC2)cc1` [Example 367, N-[(1S)-1-(dicyclopropylmethyl)-2-[4-(2,4-dimethylpyrazol-3-yl)anilino]-2-oxo-ethyl]-2-isopropyl-pyrazole-3-carboxamide], the pEC50 was > 7.00.
`CC(C)n1nccc1C(=O)N[C@H](C(=O)Nc1ccc(-c2c(C3(O)CC3)cnn2C)cc1)C(C1CC1)C1CC1` [Example 368, N-[(1S)-1-(dicyclopropylmethyl)-2-[4-[4-(1-hydroxycyclopropyl)-2-methyl-pyrazol-3-yl]anilino]-2-oxo-ethyl]-2-isopropyl-pyrazole-3-carboxamide] showed a pEC50 of 6.00 to 7.00.
Work on `CCn1nccc1C(=O)N[C@H](C(=O)Nc1ccc(-n2cnc(C)c2C)cc1)C(C1CC1)C1CC1` [Example 369, N-[(1S)-1-(dicyclopropylmethyl)-2-[4-(4,5-dimethylimidazol-1-yl)anilino]-2-oxo-ethyl]-2-ethyl-pyrazole-3-carboxamide] yielded a pEC50 of 6.00 to 7.00.

Source: patent US11377425B1, “Small molecule modulators of IL-17” (LEO Pharma A/S, priority 2018, dated 2022)
